Source: patent US20260125400A1, “TYK2 DEGRADERS AND USES THEREOF” (Kymera Therapeutics, Inc., priority 2023, published 2026)

Biological target: T1, TYK2 (Homo sapiens, UniProt P29597)
T1 construct: Degradation of TYK2 in cells was quantitatively measured using Meso Scale Discovery (MSD) technology; endogenous in cells; host or cells: OCI-LY10
Experiment: TYK2 MSD degradation in OCI-LY10 cells
Assay type: cell-based
Conditions: TYK2 degradation in OCI-LY10 cells, 4 to 24 hours incubation; for DC50: read-out: TYK2 MSD OCI-LY10 Rel-DC50
Outline: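 Cellular TYK2 levels were measured by Meso Scale Discovery sandwich detection in RIPA lysates of OCI-LY10 cells exposed 4 to 24 hours at 37° C to nine 1:3 compound doses starting at 1 to 10 μM final; dose-response fitted by four-parameter regression.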

T1 sequence (P29597 whole entry): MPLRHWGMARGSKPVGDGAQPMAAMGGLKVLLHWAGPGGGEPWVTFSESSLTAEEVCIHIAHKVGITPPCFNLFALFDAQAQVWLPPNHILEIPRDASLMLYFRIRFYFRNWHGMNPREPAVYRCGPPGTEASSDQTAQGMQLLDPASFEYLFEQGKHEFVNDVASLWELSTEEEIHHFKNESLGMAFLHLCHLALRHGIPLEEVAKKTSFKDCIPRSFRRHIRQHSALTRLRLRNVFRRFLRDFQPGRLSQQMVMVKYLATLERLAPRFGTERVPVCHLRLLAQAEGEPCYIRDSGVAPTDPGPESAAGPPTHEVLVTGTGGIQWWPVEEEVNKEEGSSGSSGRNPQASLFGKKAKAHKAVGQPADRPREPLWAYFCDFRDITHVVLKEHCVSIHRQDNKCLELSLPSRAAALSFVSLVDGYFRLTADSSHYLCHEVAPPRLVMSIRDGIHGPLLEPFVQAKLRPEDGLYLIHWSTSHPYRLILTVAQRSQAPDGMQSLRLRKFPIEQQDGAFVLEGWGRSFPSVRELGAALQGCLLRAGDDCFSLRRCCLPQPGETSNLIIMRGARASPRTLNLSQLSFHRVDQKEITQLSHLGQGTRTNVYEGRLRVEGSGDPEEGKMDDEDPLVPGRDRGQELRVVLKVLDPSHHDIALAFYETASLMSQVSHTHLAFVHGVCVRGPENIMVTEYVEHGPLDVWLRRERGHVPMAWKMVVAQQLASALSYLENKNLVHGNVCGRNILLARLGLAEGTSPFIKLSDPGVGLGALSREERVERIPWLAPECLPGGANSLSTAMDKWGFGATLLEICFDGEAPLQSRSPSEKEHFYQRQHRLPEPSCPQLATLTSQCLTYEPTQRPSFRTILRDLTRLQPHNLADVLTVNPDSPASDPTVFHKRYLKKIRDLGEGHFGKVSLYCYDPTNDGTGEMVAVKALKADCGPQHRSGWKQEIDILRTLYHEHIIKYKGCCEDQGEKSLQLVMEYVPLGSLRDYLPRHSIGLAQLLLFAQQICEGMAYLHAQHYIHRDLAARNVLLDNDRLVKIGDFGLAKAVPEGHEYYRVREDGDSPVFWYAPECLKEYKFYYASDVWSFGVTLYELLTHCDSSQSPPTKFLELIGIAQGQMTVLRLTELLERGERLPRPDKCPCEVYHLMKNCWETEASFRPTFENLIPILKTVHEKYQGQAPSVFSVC

| Structure (SMILES) | TYK2 MSD OCI-LY10 Dmax % | DC50 |
| --- | --- | --- |
| CNc1cc(N2CCc3c(CN4CCC(CN5CCC6(CCN(C(=O)c7cc(C)c(Cl)c(N8CCC(=O)NC8=O)c7)CC6)C(F)(F)C5)C(F)(F)C4)cccc32)nn2c(C(=O)N[C@@H]3CC[C@H]3OC)cnc12 (stereo partly shown) [I-1122] | A (A (>90%)) | < 1 nM |
| CNc1cc(N2CCc3c(CN4CCC(CN5CCC6(CCN(C(=O)c7ccc(Cl)c(N8CCC(=O)NC8=O)c7)CC6)C(F)(F)C5)C(F)(F)C4)cccc32)nn2c(C(=O)N[C@@H]3CC[C@H]3OC)cnc12 (stereo partly shown) [I-1124] | A (A (>90%)) | < 1 nM |
| CNc1cc(N2CCc3c(CN4CCC(N5CCC6(CCN(C(=O)c7cc(N8CCC(=O)NC8=O)c(C)c(Cl)c7F)CC6)CC5)C(F)(F)C4)cccc32)nn2c(C(=O)N[C@@H]3CC[C@H]3OC)cnc12 (stereo partly shown) [I-1125] | A (A (>90%)) | < 1 nM |
| CNc1cc(N2CCc3c([C@H](C)N4CC[C@H](N5CCC6(CCN(C(=O)c7cc(C)c(Cl)c(N8CCC(=O)NC8=O)c7)CC6)CC5)C(F)(F)C4)cccc32)nn2c(C(=O)N[C@@H]3CC[C@H]3OC)cnc12 [I-1127] | A (A (>90%)) | < 1 nM |
| CNc1cc(N2CCc3c([C@@H](C)N4CC[C@H](N5CCC6(CCN(C(=O)c7cc(C)c(Cl)c(N8CCC(=O)NC8=O)c7)CC6)CC5)C(F)(F)C4)cccc32)nn2c(C(=O)N[C@@H]3CC[C@H]3OC)cnc12 [I-1128] | A (A (>90%)) | < 1 nM |
| COC1(c2cc(C)cc(-c3cn(CCC4CCN(C5CCN(c6cc(F)c(C7CCC(=O)NC7=O)c(F)c6)CC5)CC4)c4cnc(NC(C)=O)cc34)n2)CCOC1 (stereo not shown) [I-1130] | B (B (90 to >75%)) | < 10 nM |
| CNc1cc(N2CCc3c(-c4ncc(CN5CC6(CCN(C(=O)c7cc(N8CCC(=O)NC8=O)c(C)c(Cl)c7F)CC6(F)F)C5)cc4F)cccc32)nn2c(C(=O)N[C@@H]3CC[C@H]3OC)cnc12 [I-1133] | A (A (>90%)) | < 1 nM |
| CNc1cc(N2CCc3c(-c4ncc(CN5CC6(CCN(C(=O)c7cc(N8CCC(=O)NC8=O)c(OC)cc7F)CC6(F)F)C5)cc4F)cccc32)nn2c(C(=O)N[C@@H]3CC[C@H]3OC)cnc12 [I-1134] | A (A (>90%)) | < 1 nM |
| CNc1cc(N2CCc3c(-c4ncc(CN5CC6(CCN(C(=O)c7cc(N8CCC(=O)NC8=O)c(OC)cc7C)CC6(F)F)C5)cc4F)cccc32)nn2c(C(=O)N[C@@H]3CC[C@H]3OC)cnc12 [I-1135] | A (A (>90%)) | < 1 nM |
| CNc1cc(N2CCc3c(-c4ncc(CN5CC6(CCN(C(=O)c7cc(OC)c(C)c(N8CCC(=O)NC8=O)c7)CC6(F)F)C5)cc4F)cccc32)nn2c(C(=O)N[C@@H]3CC[C@H]3OC)cnc12 [I-1137] | A (A (>90%)) | < 1 nM |
| CNc1cc(N2CCc3c(-c4ncc(CN5CC6(CCN(C(=O)c7cc(C)c(OC)c(N8CCC(=O)NC8=O)c7)CC6(F)F)C5)cc4F)cccc32)nn2c(C(=O)N[C@@H]3CC[C@H]3OC)cnc12 [I-1138] | B (B (90 to >75%)) | < 1 nM |
| CNc1cc(N2CCc3c(-c4ncc(C(=O)N5CC6(CCN(C(=O)c7cc(C)c(Cl)c(N8CCC(=O)NC8=O)c7)CC6(F)F)C5)cc4F)cccc32)nn2c(C(=O)N[C@@H]3CC[C@H]3OC)cnc12 [I-1139] | A (A (>90%)) | < 1 nM |
| CNc1cc(N2CCc3c(-c4ncc(C(=O)N5CC6(CCN(C(=O)c7cc(C)c(Cl)c(N8CCC(=O)NC8=O)c7)CC6)C5)cc4F)cccc32)nn2c(C(=O)N[C@@H]3CC[C@H]3OC)cnc12 [I-1140] | A (A (>90%)) | < 1 nM |
| CNc1cc(N2CCc3c(CN4CC[C@@H](N5CCC6(CC5)CN(C(=O)c5cc(Cl)c(C)c(N7CCC(=O)NC7=O)c5)C6)C(F)(F)C4)cccc32)nn2c(C(=O)N[C@@H]3CC[C@H]3OC)cnc12 [I-1141] | A (A (>90%)) | < 1 nM |
| CNc1cc(N2CCc3c(CN4CC[C@H](N5CCC6(CC5)CN(C(=O)c5cc(Cl)c(C)c(N7CCC(=O)NC7=O)c5)C6)C(F)(F)C4)cccc32)nn2c(C(=O)N[C@@H]3CC[C@H]3OC)cnc12 [I-1142] | A (A (>90%)) | < 1 nM |
| CNc1cc(N2CCc3c(-c4ncc([C@H](C)N5CC6(CCN(C(=O)c7cc(C)c(Cl)c(N8CCC(=O)NC8=O)c7)CC6(F)F)C5)cc4F)cccc32)nn2c(C(=O)N[C@@H]3CC[C@H]3OC)cnc12 [I-1143] | A (A (>90%)) | < 1 nM |

| Structure (SMILES) | TYK2 MSD OCI-LY10 Dmax % | DC50 |
| --- | --- | --- |
| CNc1cc(N2CCc3c(-c4ncc([C@@H](C)N5CC6(CCN(C(=O)c7cc(C)c(Cl)c(N8CCC(=O)NC8=O)c7)CC6(F)F)C5)cc4F)cccc32)nn2c(C(=O)N[C@@H]3CC[C@H]3OC)cnc12 [I-1144] | B (B (90 to >75%)) | < 1 nM |
| CNc1cc(N2CCc3c(CN4CC[C@@H](N5CCC6(CCN(C(=O)c7cc(Cl)c(Cl)c(N8CCC(=O)NC8=O)c7)CC6)CC5)C(F)(F)C4)cccc32)nn2c(C(=O)N[C@@H]3CC[C@H]3OC)cnc12 [I-1145] | A (A (>90%)) | < 1 nM |
| CNc1cc(N2CCc3c(CN4CC[C@H](N5CCC6(CCN(C(=O)c7cc(Cl)c(Cl)c(N8CCC(=O)NC8=O)c7)CC6)CC5)C(F)(F)C4)cccc32)nn2c(C(=O)N[C@@H]3CC[C@H]3OC)cnc12 [I-1146] | A (A (>90%)) | < 1 nM |
| CNc1cc(N2CCc3c(CN4CC[C@@H](N5CCC6(CCN(C(=O)c7cc(N8CCC(=O)NC8=O)c(Cl)cn7)CC6)CC5)C(F)(F)C4)cc(F)cc32)nn2c(C(=O)N[C@@H]3CC[C@H]3OC)cnc12 [I-1147] | A (A (>90%)) | < 1 nM |
| CNc1cc(N2CCc3c(CN4CC[C@H](N5CCC6(CCN(C(=O)c7cc(N8CCC(=O)NC8=O)c(Cl)cn7)CC6)CC5)C(F)(F)C4)cc(F)cc32)nn2c(C(=O)N[C@@H]3CC[C@H]3OC)cnc12 [I-1148] | B (B (90 to >75%)) | < 1 nM |
| CNc1cc(N2CCc3c(-c4ncc(CN5CC6(CCN(C(=O)c7cc(N8CCC(=O)NC8=O)c(Cl)cn7)CC6(F)F)C5)cc4F)cc(F)cc32)nn2c(C(=O)N[C@@H]3CC[C@H]3OC)cnc12 [I-1149] | A (A (>90%)) | < 1 nM |
| CNc1cc(N2CCc3c(-c4ncc(CN5CC6(CCN(C(=O)c7cc(N8CCC(=O)NC8=O)c(Cl)c(C)n7)CC6(F)F)C5)cc4F)cc(F)cc32)nn2c(C(=O)N[C@@H]3C[C@@H]3F)cnc12 [I-1150] | A (A (>90%)) | < 1 nM |
| CNc1cc(N2CCc3c(-c4ncc(CN5CC6(CCN(C(=O)c7cc(N8CCC(=O)NC8=O)c(Cl)c(C)n7)CC6(F)F)C5)cc4F)cc(F)cc32)nn2c(C(=O)N[C@@H]3CC[C@H]3OC)cnc12 [I-1151] | A (A (>90%)) | < 1 nM |
| CNc1cc(N2CCc3c(-c4ncc(CN5CC6(CCN(C(=O)c7cc(N8CCC(=O)NC8=O)c(F)cn7)CC6(F)F)C5)cc4F)cc(F)cc32)nn2c(C(=O)N[C@@H]3C[C@@H]3F)cnc12 [I-1153] | B (B (90 to >75%)) | < 10 nM |
| CNc1cc(N2CCc3c(-c4ncc(CN5CC6(CCN(C(=O)c7ccc(Cl)c(N8CCC(=O)NC8=O)c7)CC6(F)F)C5)cc4F)cccc32)nn2c(C(=O)N[C@@H]3CC[C@H]3OC)cnc12 [I-1154] | A (A (>90%)) | < 1 nM |
| CNc1cc(N2CCc3c(-c4ncc(CN5CC6(CCN(C(=O)c7cc(N8CCC(=O)NC8=O)c(F)cn7)CC6(F)F)C5)cc4F)cc(F)cc32)nn2c(C(=O)N[C@@H]3CC[C@H]3OC)cnc12 [I-1155] | B (B (90 to >75%)) | < 1 nM |
| CNc1cc(N2CCc3c(CN4CCC(N5CCC6(CC5)CN(C(=O)c5cc(N7CCC(=O)NC7=O)c(Cl)c(C)n5)C6)C(F)(F)C4)cccc32)nn2c(C(=O)N[C@@H]3CC[C@H]3OC)cnc12 (stereo partly shown) [I-1156] | B (B (90 to >75%)) | < 1 nM |
| CNc1cc(N2CCc3c(CN4CCC(N5CCC6(CCN(C(=O)c7cc(N8CCC(=O)NC8=O)c(Cl)c(C)n7)CC6)CC5)C(F)(F)C4)cccc32)nn2c(C(=O)N[C@@H]3CC[C@H]3OC)cnc12 (stereo partly shown) [I-1157] | A (A (>90%)) | < 1 nM |
| CNc1cc(N2CCc3c(CN4CCC(N5CCC6(CC5)CN(C(=O)c5cc(N7CCC(=O)NC7=O)c(Cl)cn5)C6)C(F)(F)C4)cccc32)nn2c(C(=O)N[C@@H]3CC[C@H]3OC)cnc12 (stereo partly shown) [I-1158] | A (A (>90%)) | < 1 nM |
| CNc1cc(N2CCc3c(CN4CCC(N5CCC6(CCN(C(=O)c7cc(N8CCC(=O)NC8=O)c(Cl)c(C)n7)CC6)CC5)C(F)(F)C4)cc(F)cc32)nn2c(C(=O)N[C@@H]3CC[C@H]3OC)cnc12 (stereo partly shown) [I-1159] | A (A (>90%)) | < 1 nM |
| CNc1cc(N2CCc3c(-c4ccc(CN5CCN(C6CCN(C(=O)c7cc(C)c(Cl)c(N8CCC(=O)NC8=O)c7)CC6(F)F)CC5)cn4)cccc32)nn2c(C(=O)N[C@@H]3CC[C@H]3OC)cnc12 (stereo partly shown) [I-1161] | B (B (90 to >75%)) | < 1 nM |
